According to patent US10144732B2 (BIOGEN MA INC., priority 2014, dated 2018):
Where a name gives a salt, the structure may show the parent alone.

Target: T1, Human ATX protein (Homo sapiens, UniProt Q13822)
T1 construct: made in house
Experiment: ATX biochemical assay (FRET, FS-3 substrate)
Conditions: FRET assay, FS-3 2 μM, ATX 1.0 μg/mL, 30 minutes preincubation, 2 hours reaction at room temperature; read-out: IC50
How it was run: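 FRET read-out: cleavage of FS-3 (2 μM final) unquenches fluorescein, measured at 485/538 nm after 2 h at room temperature. Before substrate addition, in-house-expressed human autotaxin (1.0 μg/mL) sat with compound for 30 min in pH 7.4 Tris/NaCl/KCl/CaCl2/MgCl2 buffer containing fatty acid free-BSA at 1 mg/mL.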

IC50 [µM]	Compound
≤ 0.1	CCN1CCC(CC(=O)N2CCc3c(C(F)(F)F)nn(Cc4ccc(Cl)cc4F)c3C2)CC1 [Example 11-3, 1-(1-(4-Chloro-2-fluorobenzyl)-3-(trifluoromethyl)-4,5-dihydro-1H-pyrazolo[3,4-c]pyridin-6(7H)-yl)-2-(1-ethylpiperidin-4-yl)ethanone HCl salt]
≤ 0.1	CC(C)N1CCCC(CC(=O)N2CCc3c(C(F)(F)F)nn(Cc4ccc(F)cc4)c3C2)C1 (stereo not shown) [Example 11-4, 1-(1-(4-Fluorobenzyl)-3-(trifluoromethyl)-4,5-dihydro-1H-pyrazolo[3,4-c]pyridin-6(7H)-yl)-2-(1-isopropylpiperidin-3-yl)ethanone formate]
≤ 0.1	COC(=O)C1CCN(CC(=O)N2CCc3c(C(F)(F)F)nn(Cc4ccc(F)cc4)c3C2)CC1 [Example 12-1, Methyl 1-(2-(1-(4-fluorobenzyl)-3-(trifluoromethyl)-4,5-dihydro-1H-pyrazolo[3,4-c]pyridin-6(7H)-yl)-2-oxoethyl)piperidine-4-carboxylate]
≤ 0.1	O=C(CN1CCCCC1)N1CCc2c(C(F)(F)F)nn(Cc3ccc(Cl)cc3F)c2C1 [Example 12-2, 1-(1-(4-Chloro-2-fluorobenzyl)-3-(trifluoromethyl)-4,5-dihydro-1H-pyrazolo[3,4-c]pyridin-6(7H)-yl)-2-(piperidin-1-yl)ethanone]
≤ 0.1	CCOC(=O)C1CCCN(CC(=O)N2CCc3c(C(F)(F)F)nn(Cc4ccc(Cl)cc4F)c3C2)C1 (stereo not shown) [Example 12-3, Ethyl 1-(2-(1-(4-chloro-2-fluorobenzyl)-3-(trifluoromethyl)-4,5-dihydro-1H-pyrazolo[3,4-c]pyridin-6(7H)-yl)-2-oxoethyl)piperidine-3-carboxylate]
≤ 0.1	CCOC(=O)C1CCCN(CC(=O)N2CCc3c(C(F)(F)F)nn(Cc4ccc(F)cc4)c3C2)C1 (stereo not shown) [Example 12-5, Ethyl 1-(2-(1-(4-fluorobenzyl)-3-(trifluoromethyl)-4,5-dihydro-1H-pyrazolo[3,4-c]pyridin-6(7H)-yl)-2-oxoethyl)piperidine-3-carboxylate]
≤ 0.1	CCOC(=O)C1CCN(C(C)C(=O)N2CCc3c(C(F)(F)F)nn(Cc4ccc(Cl)cc4F)c3C2)CC1 (stereo not shown) [Example 12-6, Ethyl 1-(1-(1-(4-chloro-2-fluorobenzyl)-3-(trifluoromethyl)-4,5-dihydro-1H-pyrazolo[3,4-c]pyridin-6(7H)-yl)-1-oxopropan-2-yl)piperidine-4-carboxylate]
≤ 0.1	COC(=O)C1CCN(CC(=O)N2CCc3c(C(F)(F)F)nn(Cc4ccc(F)cc4)c3C2)C1 (stereo not shown) [Example 12-7, Methyl 1-(2-(1-(4-fluorobenzyl)-3-(trifluoromethyl)-4,5-dihydro-1H-pyrazolo[3,4-c]pyridin-6(7H)-yl)-2-oxoethyl)pyrrolidine-3-carboxylate]
≤ 0.1	O=C(CN1CCC(C(F)(F)F)CC1)N1CCc2c(C(F)(F)F)nn(Cc3ccc(Cl)cc3F)c2C1 [Example 12-8, 1-(1-(4-Chloro-2-fluorobenzyl)-3-(trifluoromethyl)-4,5-dihydro-1H-pyrazolo[3,4-c]pyridin-6(7H)-yl)-2-(4-(trifluoromethyl)piperidin-1-yl)ethanone]
> 10	CCOC(=O)CCNCC(=O)N1CCc2c(C(F)(F)F)nn(Cc3ccc(F)cc3)c2C1 [Example 12-9, Ethyl 3-(2-(1-(4-fluorobenzyl)-3-(trifluoromethyl)-4,5-dihydro-1H-pyrazolo[3,4-c]pyridin-6(7H)-yl)-2-oxoethylamino)propanoate]
≤ 0.1	N#CC1CCN(CC(=O)N2CCc3c(C(F)(F)F)nn(Cc4ccc(F)cc4)c3C2)CC1 [Example 12-10, 1-(2-(1-(4-Fluorobenzyl)-3-(trifluoromethyl)-4,5-dihydro-1H-pyrazolo[3,4-c]pyridin-6(7H)-yl)-2-oxoethyl)piperidine-4-carbonitrile TFA salt]
≤ 0.1	N#CC1CCN(CC(=O)N2CCc3c(C(F)(F)F)nn(Cc4ccc(F)cc4)c3C2)C1 (stereo not shown) [Example 12-11, 1-(2-(1-(4-Fluorobenzyl)-3-(trifluoromethyl)-4,5-dihydro-1H-pyrazolo[3,4-c]pyridin-6(7H)-yl)-2-oxoethyl)pyrrolidine-3-carbonitrile TFA salt]
≤ 0.1	N#CC1CN(CC(=O)N2CCc3c(C(F)(F)F)nn(Cc4ccc(F)cc4)c3C2)C1 [Example 12-12, 1-(2-(1-(4-Fluorobenzyl)-3-(trifluoromethyl)-4,5-dihydro-1H-pyrazolo[3,4-c]pyridin-6(7H)-yl)-2-oxoethyl)azetidine-3-carbonitrile TFA salt]
≤ 0.1	CC1CCN(CC(=O)N2CCc3c(C(F)(F)F)nn(Cc4ccc(Cl)cc4F)c3C2)CC1 [Example 12-13, 1-(1-(4-Chloro-2-fluorobenzyl)-3-(trifluoromethyl)-4,5-dihydro-1H-pyrazolo[3,4-c]pyridin-6(7H)-yl)-2-(4-methylpiperidin-1-yl)ethanone]
≤ 0.1	CC1CCN(CC(=O)N2CCc3c(C(F)(F)F)nn(Cc4ccc(F)cc4)c3C2)CC1 [Example 12-14, 1-(1-(4-Fluorobenzyl)-3-(trifluoromethyl)-4,5-dihydro-1H-pyrazolo[3,4-c]pyridin-6(7H)-yl)-2-(4-methylpiperidin-1-yl)ethanone]
≤ 0.1	O=C(CN1CCC(C(F)(F)F)CC1)N1CCc2c(C(F)(F)F)nn(Cc3ccc(F)cc3)c2C1 [Example 12-15, 1-(1-(4-Fluorobenzyl)-3-(trifluoromethyl)-4,5-dihydro-1H-pyrazolo[3,4-c]pyridin-6(7H)-yl)-2-(4-(trifluoromethyl)piperidin-1-yl)ethanone]
≤ 0.1	CCOC(=O)C1CCCN(CC(=O)N2CCc3c(C(F)(F)F)nn(Cc4ccc(F)cc4)c3C2)CC1 (stereo not shown) [Example 12-16, Ethyl 1-(2-(1-(4-fluorobenzyl)-3-(trifluoromethyl)-4,5-dihydro-1H-pyrazolo[3,4-c]pyridin-6(7H)-yl)-2-oxoethyl)azepane-4-carboxylate TFA salt]
≤ 0.1	CCOC(=O)C1CCCN(CC(=O)N2CCc3c(C(F)(F)F)nn(Cc4ccc(Cl)cc4F)c3C2)CC1 (stereo not shown) [Example 12-17, TFA salt]
≤ 0.1	COC(=O)CC1CN(CC(=O)N2CCc3c(C(F)(F)F)nn(Cc4ccc(F)cc4)c3C2)C1 [Example 12-19, Methyl 2-(1-(2-(1-(4-fluorobenzyl)-3-(trifluoromethyl)-4,5-dihydro-1H-pyrazolo[3,4-c]pyridin-6(7H)-yl)-2-oxoethyl)azetidin-3-yl)acetate TFA salt]
≤ 0.1	O=C(O)C1CCN(CC(=O)N2CCc3c(C(F)(F)F)nn(Cc4ccc(F)cc4)c3C2)CC1 [Example 13-1, 1-(2-(1-(4-Fluorobenzyl)-3-(trifluoromethyl)-4,5-dihydro-1H-pyrazolo[3,4-c]pyridin-6(7H)-yl)-2-oxoethyl)piperidine-4-carboxylic acid]
≤ 0.1	O=C(O)C1CCN(CC(=O)N2CCc3c(C(F)(F)F)nn(Cc4ccc(Cl)cc4F)c3C2)CC1 [Example 13-2, 1-(2-(1-(4-Chloro-2-fluorobenzyl)-3-(trifluoromethyl)-4,5-dihydro-1H-pyrazolo[3,4-c]pyridin-6(7H)-yl)-2-oxoethyl)piperidine-4-carboxylic acid]
≤ 0.1	O=C(O)C1CCCN(CC(=O)N2CCc3c(C(F)(F)F)nn(Cc4ccc(Cl)cc4F)c3C2)C1 (stereo not shown) [Example 13-3, 1-(2-(1-(4-Chloro-2-fluorobenzyl)-3-(trifluoromethyl)-4,5-dihydro-1H-pyrazolo[3,4-c]pyridin-6(7H)-yl)-2-oxoethyl)piperidine-3-carboxylic acid]
≤ 0.1	O=C(O)C1CCCN(CC(=O)N2CCc3c(C(F)(F)F)nn(Cc4ccc(F)cc4)c3C2)C1 (stereo not shown) [Example 13-7, 1-(2-(1-(4-Fluorobenzyl)-3-(trifluoromethyl)-4,5-dihydro-1H-pyrazolo[3,4-c]pyridin-6(7H)-yl)-2-oxoethyl)piperidine-3-carboxylic acid]

Same assay, conditions: IC50, FRET assay, FS-3 2 μM, ATX 1.0 μg/mL, 30 minutes preincubation, 2 hours reaction at room temperature

Compound	IC50 [µM]
COC(=O)C1CC2CCC(C1)N2CC(=O)N1CCc2c(C(F)(F)F)nn(Cc3ccc(Cl)cc3F)c2C1 (stereo not shown) [Example 12-4, Methyl 8-(2-(1-(4-chloro-2-fluorobenzyl)-3-(trifluoromethyl)-4,5-dihydro-1H-pyrazolo[3,4-c]pyridin-6(7H)-yl)-2-oxoethyl)-8-azabicyclo[3.2.1]octane-3-carboxylate]	≤ 0.1
COC(=O)C1CC2COCC(C1)N2CC(=O)N1CCc2c(C(F)(F)F)nn(Cc3ccc(F)cc3)c2C1 (stereo not shown) [Example 12-18, Methyl 9-(2-(1-(4-fluorobenzyl)-3-(trifluoromethyl)-4,5-dihydro-1H-pyrazolo[3,4-c]pyridin-6(7H)-yl)-2-oxoethyl)-3-oxa-9-azabicyclo[3.3.1]nonane-7-carboxylate]	≤ 0.1
O=C(O)C1CC2CCC(C1)N2CC(=O)N1CCc2c(C(F)(F)F)nn(Cc3ccc(Cl)cc3F)c2C1 (stereo not shown) [Example 13-4, 8-(2-(1-(4-Chloro-2-fluorobenzyl)-3-(trifluoromethyl)-4,5-dihydro-1H-pyrazolo[3,4-c]pyridin-6(7H)-yl)-2-oxoethyl)-8-azabicyclo[3.2.1]octane-3-carboxylic acid]	≤ 0.1
O=C(O)C1CC2CCC(C1)N2CC(=O)N1CCc2c(C(F)(F)F)nn(Cc3ccc(F)cc3)c2C1 (stereo not shown) [Example 13-5, 8-(2-(1-(4-Fluorobenzyl)-3-(trifluoromethyl)-4,5-dihydro-1H-pyrazolo[3,4-c]pyridin-6(7H)-yl)-2-oxoethyl)-8-azabicyclo[3.2.1]octane-3-carboxylic acid]	≤ 0.1
O=C(O)C1CC2CCCC(C1)N2CC(=O)N1CCc2c(C(F)(F)F)nn(Cc3ccc(F)cc3)c2C1 (stereo not shown) [Example 13-6, 9-(2-(1-(4-Fluorobenzyl)-3-(trifluoromethyl)-4,5-dihydro-1H-pyrazolo[3,4-c]pyridin-6(7H)-yl)-2-oxoethyl)-9-azabicyclo[3.3.3.1]nonane-3-carboxylic acid]	≤ 0.1
